US4189497A, “Method of treating arthritic disease” (American Cyanamid Company, priority 1978, dated 1980)

System: Adjuvant Arthritis in Rats
Assay: Adjuvant induced arthritis in rats (Freund's adjuvant, right hind paw)
Text: Adjuvant induced experimental polyarthritis is a specific systemic disease of the rat which shares interesting similarities with rheumatoid arthritis. Specifically, the histology of the two diseases bears a remarkable resemblance as shown by C. M. Pearson et al., Am. J. Pathol. 42, 73 (1963). E. M. Glenn, Am. J. Vet. Res. 27 (116) 339 (1966) has classified adjuvant induced polyarthritis as a crippling and permanent deformity resulting from diffuse connective tissue involvement around certain susceptible joints in the rat. Zahiri et al., Can. Med. Ass. J. 101, 269 (1969) have shown that the fusiform swelling of the distal joints is associated with edema, congestion and synovitis including pannus formation, all of which precede the ultimate destruction of bone and cartilage. Furthermore, Zahiri et al. indicate that the cartilage destruction in the joint is due to an invasive pannus which originates in the marginal synovium and extends across the articular surface to erode it. […] See S. Wong et al., J. Pharm. & Exptl. Ther. 185, 127 (1973) and G. R. Bobalick et al., Agents & Actions 4, 364 (1974).
Groups of three Royal Hart, Wistar strain rats weighing 200±10 grams each were injected intradermally in the right hind paw with Freund's adjuvant (dried human tubercle bacilli in a mineral oil vehicle) at a dose of 2 mg./kg. of body weight. Test compound was administered orally in a 1.5% starch vehicle at various doses once daily on days 0 through 13 post challenge. […] On the 14th and 21st day post challenge the diameter of the injected paw (primary lesion) was measured by micrometer caliper. The volume of inflamed paws were estimated from these measurements and the results are expressed as percent inhibition of swelling as compared to controls. At the same time, the other inflamed sites, such as ears, paws and tail (secondary lesions) were observed and each rat was graded as to degree of inflammation and swelling present. The grading is based on a scale of 0 to 24, where 0 represents a complete absence of induced arthritic nodules and 24 represents the maximum degree of inflammation. The mean grade for each treated group is calculated and the effects of each compound are expressed as percent inhibition of the control grade.

[1] = oral dose 50 mg./kg. once daily days 0-13
[2] = oral dose 100 mg./kg. once daily days 0-13
[3] = oral dose 200 mg./kg. once daily days 0-13
[4] = oral dose 400 mg./kg. once daily days 0-13
[5] = oral dose 0.25 mg./kg. once daily days 0-13
[6] = oral dose 0.5 mg./kg. once daily days 0-13
[7] = oral dose 1 mg./kg. once daily days 0-13
[8] = oral dose 2 mg./kg. once daily days 0-13
[9] = oral dose 18.8 mg./kg. once daily days 0-13
[10] = oral dose 37.5 mg./kg. once daily days 0-13
[11] = oral dose 75 mg./kg. once daily days 0-13
[12] = oral dose 150 mg./kg. once daily days 0-13

CC(=O)Oc1ccccc1C(=O)O [Aspirin]
% Inhibition of Swelling (primary lesion) Day 14 [1]: 23% | Mean Weight Gain Day 14 [1]: 56 grams | % Inhibition of Swelling (primary lesion) Day 21 [1]: 3% | Mean Weight Gain Day 21 [1]: 44 grams | % Inhibition of Swelling (primary lesion) Day 14 [2]: 36% | Mean Weight Gain Day 14 [2]: 48 grams | % Inhibition of Swelling (primary lesion) Day 21 [2]: 13% | Mean Weight Gain Day 21 [2]: 53 grams | % Inhibition of Swelling (primary lesion) Day 14 [3]: 48% | Mean Weight Gain Day 14 [3]: 40 grams | % Inhibition of Swelling (primary lesion) Day 21 [3]: 27% | Mean Weight Gain Day 21 [3]: 44 grams | % Inhibition of Swelling (primary lesion) Day 14 [4]: 73% | Mean Weight Gain Day 14 [4]: 41 grams | % Inhibition of Swelling (primary lesion) Day 21 [4]: 48% | Mean Weight Gain Day 21 [4]: 55 grams

N#CCC(=O)c1cccs1 [B-oxo-2-thiophenepropionitrile, β-oxo-2-thiophenepropionitrile]
progression of the arthritis and associated joint deterioration (adjuvant arthritic rats, oral dosing, summary of Table I): appears to suppress the progression of the arthritis and associated joint deterioration | % Inhibition of Control Grade (secondary lesion) Day 14 [1]: 46% | % Inhibition of Swelling (primary lesion) Day 14 [1]: 46% | Mean Weight Gain Day 14 [1]: 56 grams | % Inhibition of Control Grade (secondary lesion) Day 21 [1]: 0% | % Inhibition of Swelling (primary lesion) Day 21 [1]: 18% | Mean Weight Gain Day 21 [1]: 48 grams | Dead/Treated At 21 Days (oral dose 50 mg./kg. once daily days 0-13, adjuvant arthritic rats): 3/36 | % Inhibition of Control Grade (secondary lesion) Day 14 [2]: 58% | % Inhibition of Swelling (primary lesion) Day 14 [2]: 58% | Mean Weight Gain Day 14 [2]: 52 grams | % Inhibition of Control Grade (secondary lesion) Day 21 [2]: 10% | % Inhibition of Swelling (primary lesion) Day 21 [2]: 42% | Mean Weight Gain Day 21 [2]: 69 grams | Dead/Treated At 21 Days (oral dose 100 mg./kg. once daily days 0-13, adjuvant arthritic rats): 3/18 | % Inhibition of Control Grade (secondary lesion) Day 14 [3]: 72% | % Inhibition of Swelling (primary lesion) Day 14 [3]: 72% | Mean Weight Gain Day 14 [3]: 34 grams | % Inhibition of Control Grade (secondary lesion) Day 21 [3]: 32% | % Inhibition of Swelling (primary lesion) Day 21 [3]: 29% | Mean Weight Gain Day 21 [3]: 54 grams | Dead/Treated At 21 Days (oral dose 200 mg./kg. once daily days 0-13, adjuvant arthritic rats): 2/18

COc1ccc2c(c1)c(CC(=O)O)c(C)n2C(=O)c1ccc(Cl)cc1 [Indomethacin]
% Inhibition of Swelling (primary lesion) Day 14 [5]: 30% | Mean Weight Gain Day 14 [5]: 51 grams | % Inhibition of Swelling (primary lesion) Day 21 [5]: 4% | Mean Weight Gain Day 21 [5]: 57 grams | % Inhibition of Swelling (primary lesion) Day 14 [6]: 40% | Mean Weight Gain Day 14 [6]: 53 grams | % Inhibition of Swelling (primary lesion) Day 21 [6]: 20% | Mean Weight Gain Day 21 [6]: 51 grams | % Inhibition of Swelling (primary lesion) Day 14 [7]: 46% | Mean Weight Gain Day 14 [7]: 63 grams | % Inhibition of Swelling (primary lesion) Day 21 [7]: 19% | Mean Weight Gain Day 21 [7]: 65 grams | % Inhibition of Swelling (primary lesion) Day 14 [8]: 51% | Mean Weight Gain Day 14 [8]: 68 grams | % Inhibition of Swelling (primary lesion) Day 21 [8]: 24% | Mean Weight Gain Day 21 [8]: 68 grams

CCCCC1C(=O)N(c2ccccc2)N(c2ccccc2)C1=O [Phenylbutazone]
% Inhibition of Swelling (primary lesion) Day 14 [9]: 31% | Mean Weight Gain Day 14 [9]: 50 grams | % Inhibition of Swelling (primary lesion) Day 21 [9]: 7% | Mean Weight Gain Day 21 [9]: 45 grams | % Inhibition of Swelling (primary lesion) Day 14 [10]: 56% | Mean Weight Gain Day 14 [10]: 53 grams | % Inhibition of Swelling (primary lesion) Day 21 [10]: 14% | Mean Weight Gain Day 21 [10]: 53 grams | % Inhibition of Swelling (primary lesion) Day 14 [11]: 62% | Mean Weight Gain Day 14 [11]: 51 grams | % Inhibition of Swelling (primary lesion) Day 21 [11]: 28% | Mean Weight Gain Day 21 [11]: 50 grams | % Inhibition of Swelling (primary lesion) Day 14 [12]: 75% | Mean Weight Gain Day 14 [12]: 40 grams | % Inhibition of Swelling (primary lesion) Day 21 [12]: 44% | Mean Weight Gain Day 21 [12]: 50 grams
